pEC50: −log10 of the molar value. Where two headings read alike, the source gives them in different places.
Molecular target: T1, human α7 nAChR stably expressed in a HEK cell line (with human RIC-3) (Homo sapiens, UniProt P36544)
T1 construct: PrecisION hnAChR α7/RIC-3
Assay: Automated patch-clamp electrophysiology functional assay (Assay A), IonFlux HT, whole-cell population patch
Format: cell-based
In short: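 Whole-cell population patch clamp (IonFlux HT) used HEK cells stably co-expressing human α7 and RIC-3, held at −60 mV at room temperature. Compounds were applied alone (agonism) or with 40 μM acetylcholine (potentiation), three ascending concentrations per recording. Currents were quantified relative to a 40 μM acetylcholine reference response, giving EC50.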

[1] = automated patch-clamp electrophysiology functional assay (Assay A), potency class by EC50, read-out: α7 nAChR Potency
[2] = electrophysiology EC50, HEK cells expressing human α7/RIC-3, 40 μM acetylcholine, holding potential −60 mV, room temperature, read-out: α7 nAChR EC50

T1 sequence (P36544 23-502): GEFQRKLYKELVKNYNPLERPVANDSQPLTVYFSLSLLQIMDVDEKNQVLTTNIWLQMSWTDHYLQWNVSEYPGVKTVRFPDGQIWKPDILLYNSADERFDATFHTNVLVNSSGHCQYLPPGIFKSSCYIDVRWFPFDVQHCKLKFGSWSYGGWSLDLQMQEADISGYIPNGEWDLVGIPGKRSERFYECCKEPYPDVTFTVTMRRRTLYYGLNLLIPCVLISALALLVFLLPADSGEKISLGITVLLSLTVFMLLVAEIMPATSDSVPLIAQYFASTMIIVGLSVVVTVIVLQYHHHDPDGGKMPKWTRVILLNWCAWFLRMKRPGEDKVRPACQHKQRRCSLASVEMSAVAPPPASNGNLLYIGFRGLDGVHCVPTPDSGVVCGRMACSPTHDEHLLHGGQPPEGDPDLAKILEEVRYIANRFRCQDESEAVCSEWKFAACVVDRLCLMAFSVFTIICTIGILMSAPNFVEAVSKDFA

Compound | pEC50 [1] | pEC50 [2]
CC1(C)[C@@H](c2ccc(S(N)(=O)=O)cc2)[C@@H]1c1nnc(-c2ccccc2)s1 [Example G7] | 5.30 to 6.30 | 5.74
Cc1ncccc1-c1noc([C@H]2[C@H](c3ccc(S(N)(=O)=O)cc3)C2(C)C)n1 [Example D15] | 5.30 to 6.30 | 
Cc1ncoc1-c1noc([C@@H]2C[C@H]2c2ccc(S(N)(=O)=O)cc2)n1 [Example D31] | 5.30 to 6.30 | 
CC1(C)[C@@H](c2ccc(S(N)(=O)=O)cc2)[C@@H]1c1nc(C2CC2)no1 [Example D9] | 6.30 to 7.00 | 
CC1(C)C(c2ccc(OS(N)(=O)=O)cc2)C1c1nc(-c2ccccc2)no1 (stereo not drawn) [Example 30, 4-[trans-2,2-Dimethyl-3-(3-phenyl-1,2,4-oxadiazol-5-yl)cyclopropyl]phenyl sulfamate] | 5.30 to 6.30 | 5.85
CC1(C)[C@H](c2ccc(S(N)(=O)=O)cc2)[C@H]1c1nc(-c2cccc(Br)c2)no1 [Example A14] | 5.30 to 6.30 | 
NS(=O)(=O)c1ccc([C@@H]2C[C@H]2c2csc(-c3ccccc3)n2)cc1 [Example 25, 4-[(1R,2R)-2-(2-Phenyl-1,3-thiazol-4-yl)cyclopropyl]benzenesulfonamide] | 5.30 to 6.30 | 6.01
NS(=O)(=O)c1ccc([C@@H]2C[C@H]2c2nc(C3CCCC3)no2)cc1 [Example D21] | 6.30 to 7.00 | 6.89
NS(=O)(=O)c1ccc([C@@H]2C[C@H]2c2nc(-c3cccc(F)c3F)no2)cc1 [Example C15] | 6.30 to 7.00 | 6.47
CC(C)(C)c1noc([C@H]2[C@H](c3ccc(S(N)(=O)=O)cc3)C2(C)C)n1 [Example D10] | 6.30 to 7.00 | 6.39
CC(C)(F)c1noc([C@H]2[C@H](c3ccc(S(N)(=O)=O)cc3)C2(F)F)n1 [Example D35] | 6.30 to 7.00 | 6.39
NS(=O)(=O)c1ccc([C@H]2C[C@@H]2c2nc(-c3ccccc3)no2)cc1 [Example A5] | 4.30 to 5.30 | 5.14
CC1(C)[C@H](c2ccc(S(N)(=O)=O)cc2)[C@H]1c1nc(C2CC3(CCC3)C2)no1 (stereo partly drawn) [Example B15] | 5.30 to 6.30 | 
CC1(C)[C@H](c2ccc(S(N)(=O)=O)cc2)[C@H]1c1nc(-c2c(F)cccc2F)no1 [Example A11] | 5.30 to 6.30 | 6.02
NS(=O)(=O)c1ccc([C@H]2C[C@@H]2c2nc(-c3ccc(F)cc3F)no2)cc1 [Example A8] | 4.30 to 5.30 | 
CC1(C)[C@@H](c2ccc(S(N)(=O)=O)cc2)[C@@H]1c1nc(C2CCC2)no1 [Example D7] | 6.30 to 7.00 | 
CC1(C)[C@@H](c2ccc(S(N)(=O)=O)cc2)[C@@H]1c1nnc(-c2ccccc2)o1 [Example G1] | 5.30 to 6.30 | 5.74

Compound | pEC50 [1] | pEC50 [2]
CC1(C)[C@H](c2ccc(S(N)(=O)=O)cc2)[C@H]1c1cnn(-c2cccc(F)c2)c1 [Example 13, 4-{(1R,3R)-3-[1-(3-Fluorophenyl)-1H-pyrazol-4-yl]-2,2-dimethylcyclopropyl}benzenesulfonamide] | 6.30 to 7.00 | 6.47
CC1(C)C(c2ccc(S(N)(=O)=O)c(F)c2)C1c1nc(-c2ccccc2)no1 (single isomer, unassigned; enantiomer a) [Example 32, 4-[trans-2,2-Dimethyl-3-(3-phenyl-1,2,4-oxadiazol-5-yl)cyclopropyl]-2-fluorobenzenesulfonamide, enantiomer A] | 5.30 to 6.30 | 6.07
NS(=O)(=O)c1ccc([C@@H]2[C@@H](c3nc(-c4ccccc4)no3)C2(F)F)cc1 [Example A9] | 5.30 to 6.30 | 
CC(C)c1noc([C@H]2[C@H](c3ccc(S(N)(=O)=O)cc3)C2(C)C)n1 [Example D5] | 6.30 to 7.00 | 6.38
CC1(C)[C@@H](c2ccc(S(N)(=O)=O)cc2)[C@@H]1c1nc(-c2cccnc2C(F)(F)F)no1 [Example D30] | 5.30 to 6.30 | 5.92
CC1(C)[C@H](c2ccc(S(N)(=O)=O)cc2)[C@H]1c1nc(-c2ccccc2C(F)(F)F)no1 [Example A13] | 5.30 to 6.30 | 
NS(=O)(=O)c1ccc([C@@H]2C[C@H]2c2noc(N3CCCCC3)n2)cc1 [Example 37, 4-{(1R,2R)-2-[5-(Piperidin-1-yl)-1,2,4-oxadiazol-3-yl]cyclopropyl}benzenesulfonamide] | 6.30 to 7.00 | 6.62
Cc1cccc(-c2noc([C@@H]3C[C@H]3c3ccc(S(N)(=O)=O)cc3)n2)c1 [Example C18] | 6.30 to 7.00 | 
CC(C)c1nsc(C2CC2c2ccc(S(N)(=O)=O)cc2)n1 (single isomer, unassigned; enantiomer b) [Example 18, 4-{trans-2-[3-(Propan-2-yl)-1,2,4-thiadiazol-5-yl]cyclopropyl}benzenesulfonamide, enantiomer B] | 6.30 to 7.00 | 6.42
CC(C)Oc1ccc(Cl)cc1-c1noc([C@H]2[C@H](c3ccc(S(N)(=O)=O)cc3)C2(C)C)n1 [Example C3] | 4.30 to 5.30 | 5.21
CC(C)c1noc([C@@H]2[C@@H](c3ccc(S(N)(=O)=O)cc3)C2(F)F)n1 [Example 7, 4-{(1S,3S)-2,2-Difluoro-3-[3-(propan-2-yl)-1,2,4-oxadiazol-5-yl]cyclopropyl}benzenesulfonamide] | 5.30 to 6.30 | 6.04
CC(C)c1cnc([C@H]2[C@H](c3ccc(S(N)(=O)=O)cc3)C2(C)C)s1 [Example 21, 4-{(1S,3S)-2,2-Dimethyl-3-[5-(propan-2-yl)-1,3-thiazol-2-yl]cyclopropyl}benzenesulfonamide] | 6.30 to 7.00 | 6.41
NS(=O)(=O)c1ccc(C2CC2c2coc(-c3ccccc3)n2)cc1 (stereo not drawn) [Example 24, 4-[trans-2-(2-Phenyl-1,3-oxazol-4-yl)cyclopropyl]benzenesulfonamide] | 5.30 to 6.30 | 5.62
CC1(C)[C@@H](c2ccc(S(N)(=O)=O)cc2)[C@@H]1c1noc(CCC2CC2)n1 [Example 2, 4-((1S,3S)-3-(5-(2-Cyclopropylethyl)-1,2,4-oxadiazol-3-yl)-2,2-dimethylcyclopropyl)benzenesulfonamide] | 6.30 to 7.00 | 
CC1(C)[C@H](c2ccc(S(N)(=O)=O)cc2)[C@H]1c1nc(-c2cncc(C(F)(F)F)c2)no1 [Example B7] | 5.30 to 6.30 | 5.55
CC1(C)[C@@H](c2ccc(S(N)(=O)=O)cc2)[C@@H]1c1nc(-c2cncc(F)c2)no1 [Example D6] | 5.30 to 6.30 | 6.09
CC1(C)[C@@H](c2ccc(S(N)(=O)=O)cc2)[C@@H]1c1nnc(-c2ccccc2C(F)(F)F)o1 [Example G4] | 5.30 to 6.30 | 

More lines, now with the values ahead:

pEC50 [1] | pEC50 [2] | Compound
5.30 to 6.30 |  | CC1(C)[C@@H](c2ccc(S(N)(=O)=O)cc2)[C@@H]1c1ncc(C2CCCC2)o1 [Example K14]
5.30 to 6.30 | 5.77 | CC1C(c2ccc(S(N)(=O)=O)cc2)C1c1nc(-c2ccccc2)no1 (single isomer, unassigned) [Example M2]
5.30 to 6.30 | 5.82 | CC1(C)[C@@H](c2ccc(S(N)(=O)=O)cc2)[C@@H]1c1noc(-c2cccc(F)c2)n1 [Example H5]
6.30 to 7.00 |  | CC1(C)[C@@H](c2ccc(S(N)(=O)=O)cc2)[C@@H]1c1noc(-c2cnccc2C(F)(F)F)n1 [Example I20]
6.30 to 7.00 | 6.96 | CC1(C)[C@@H](c2ccc(S(N)(=O)=O)cc2)[C@@H]1c1noc(-c2c(F)cccc2F)n1 [Example H8]
5.30 to 6.30 | 6.20 | CC1(C)[C@@H](c2ccc(S(N)(=O)=O)cc2)[C@@H]1c1nnc(C2CCCC2)o1 [Example G10]
5.30 to 6.30 | 5.85 | CC1(C)[C@@H](c2ccc(S(N)(=O)=O)cc2)[C@@H]1c1noc(-c2cccc(C3CC3)c2)n1 [Example H9]
6.30 to 7.00 | 6.77 | CC1(C)[C@@H](c2ccc(S(N)(=O)=O)cc2)[C@@H]1c1noc(C2(c3cc(F)ccc3F)CCC2)n1 [Example I4]
5.30 to 6.30 |  | CC(C)(C)c1cnc([C@@H]2C[C@H]2c2ccc(S(N)(=O)=O)cc2)o1 [Example K4]
5.30 to 6.30 |  | NS(=O)(=O)c1ccc([C@@H]2C[C@H]2c2nnc(C3CCCC3)s2)cc1 [Example G16]
6.30 to 7.00 | 6.43 | CC1(C)[C@@H](c2ccc(S(N)(=O)=O)cc2)[C@@H]1c1csc(C2CCCC2)n1 [Example L15]
5.30 to 6.30 |  | CC1(C)[C@H](c2ccc(S(N)(=O)=O)cc2)[C@H]1c1ncc(C2CCCC2)s1 [Example J9]
5.30 to 6.30 |  | CC1(C)[C@@H](c2ccc(S(N)(=O)=O)cc2)[C@@H]1c1noc(C2CN(C(=O)C3CC3)C2)n1 [Example I23]
5.30 to 6.30 | 6.15 | Cc1ncoc1-c1nc([C@H]2[C@H](c3ccc(S(N)(=O)=O)cc3)C2(C)C)no1 [Example I7]
6.30 to 7.00 |  | NS(=O)(=O)c1ccc([C@@H]2C[C@H]2c2noc(C3CCCCC3)n2)cc1 [Example I34]
5.30 to 6.30 | 6.16 | NS(=O)(=O)c1ccc([C@@H]2C[C@H]2c2noc(C3(C(F)(F)F)CC3)n2)cc1 [Example I35]
5.30 to 6.30 |  | CC1(C)[C@@H](c2ccc(S(N)(=O)=O)cc2)[C@@H]1c1nnc(C2CC2)s1 [Example G15]
5.30 to 6.30 |  | NS(=O)(=O)c1ccc([C@@H]2C[C@H]2c2csc(C3CCCC3)n2)cc1 [Example L14]
5.30 to 6.30 |  | NS(=O)(=O)c1ccc([C@@H]2C[C@H]2c2cnc(-c3ccccc3)o2)cc1 [Example L3]
5.30 to 6.30 |  | CC1(C)[C@@H](c2ccc(S(N)(=O)=O)cc2)[C@@H]1c1ncc(C2CCCC2)s1 [Example K16]
5.30 to 6.30 | 6.14 | CC1(C)[C@H](c2ccc(S(N)(=O)=O)cc2)[C@H]1c1nc(-c2ccc(F)cc2F)co1 [Example J2]
5.30 to 6.30 | 5.42 | CC1(C)[C@@H](c2ccc(S(N)(=O)=O)cc2)[C@@H]1c1noc(C2CC(O)C2)n1 (stereo partly drawn) [Example I30]
5.30 to 6.30 |  | NS(=O)(=O)c1ccc(C2C(c3ncc(-c4ccccc4)o3)C2(F)F)cc1 (racemic) [Example M1]
